The assay deals with T1, human PAR-2 (hPAR-2) receptor expressed in HEK-293 T cells in an endogenous manner (Homo sapiens, UniProt P55085).
T1 construct: human PAR-2 (hPAR-2) receptor expressed in HEK-293 T cells in an endogenous manner; endogenous in cells; host or cells: HEK-293 T cells
T1 sequence (P55085 26-397): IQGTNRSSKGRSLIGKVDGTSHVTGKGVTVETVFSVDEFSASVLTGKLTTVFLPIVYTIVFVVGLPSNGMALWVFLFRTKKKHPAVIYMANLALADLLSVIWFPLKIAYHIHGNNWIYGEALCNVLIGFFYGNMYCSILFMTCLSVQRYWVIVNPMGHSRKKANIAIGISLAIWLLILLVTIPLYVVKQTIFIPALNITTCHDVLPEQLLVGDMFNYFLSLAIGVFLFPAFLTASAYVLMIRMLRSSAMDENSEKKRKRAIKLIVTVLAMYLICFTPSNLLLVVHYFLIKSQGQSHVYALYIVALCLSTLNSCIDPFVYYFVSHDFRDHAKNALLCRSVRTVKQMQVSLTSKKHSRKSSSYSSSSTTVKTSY
Kind of assay: In vitro human PAR-2 functional antagonist activity using calcium assays (Fluo4AM, FLIPR Tetra). The settings on record: HEK-293 T cells stimulated by an EC80 of the 2-Furoyl-LIGRLO-NH2 peptide after 10 min incubation with compound; 20 concentrations, duplicate, two independent experiments. It counts as cell-based. An outline of the steps: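 Fluo4AM-loaded HEK-293 T cells were exposed to compound for 10 min to read agonist effect. They were then stimulated with an EC80 of 2-Furoyl-LIGRLO-NH2 and intracellular calcium was recorded for 5 more min on FLIPR. Antagonism was scored against buffer basal and EC80 agonist-alone signals.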

Some results are limits rather than exact numbers.

We go through 25 molecules from patent publication US20240066027A1 (DOMAIN THERAPEUTICS, priority 2020, published 2024).

A word on the IC50: it is the concentration at which inhibition is half-maximal. With `CC(C)(C)c1nc(-c2ccc(Cl)cc2)n2ccc(C(=O)N3CCN(c4ccc(C(=O)O)cn4)CC3(C)C)nc12` [Example 217, 6-(4-(8-(tert-butyl)-6-(4-chlorophenyl)imidazo[1,5-a]pyrimidine-2-carbonyl)-3,3-dimethylpiperazin-1-yl)nicotinic acid], the half-inhibitory concentration (IC50) lay within 0.02 to 10 µM.
Consider `Cc1cc(N2CCN(C(=O)c3ccc4c(-c5ccc(Cl)c(F)c5)cn(CC5(C)CCOCC5)c4n3)C(C)(C)C2)nc(C)c1C(=O)O` [Example 183, 6-(4-(3-(4-chloro-3-fluorophenyl)-1-((4-methyltetrahydro-2H-pyran-4-yl)methyl)-1H-pyrrolo[2,3-b]pyridine-6-carbonyl)-3,3-dimethylpiperazin-1-yl)-2,4-dimethyinicotinic acid], for which the IC50 is less than 0.02 µM.
Turning to `CC[C@H](C)n1cc(-c2ccc(Cl)c(F)c2)c2ccc(C(=O)N3CCN(c4cc(C)c(C(=O)O)c(C)n4)CC3(C)C)nc21` [Example 172, (S)-6-(4-(1-(sec-butyl)-3-(4-chloro-3-fluorophenyl)-1H-pyrrolo[2,3-b]pyridine-6-carbonyl)-3,3-dimethylpiperazin-1-yl)-2,4-dimethylnicotinic acid], the IC50 is less than 0.02 µM.
As for `CC1(C)C(=O)N(CC(=O)N2CCOCC2)CCN1C(=O)c1ccc2c(-c3ccc(Cl)c(F)c3)cn(C(C)(C)C)c2n1` [Example 8, 4-(1-(tert-butyl)-3-(4-chloro-3-fluorophenyl)-1H-pyrrolo[2,3-b]pyridine-6-carbonyl)-3,3-dimethyl-1-(2-morpholino-2-oxoethyl)piperazin-2-one], the figure is less than 0.02 µM; as for `COC(=O)c1c(C)cc(N2CCN(C(=O)c3ccc4c(n3)c(CC(C)C)nn4-c3ccc(Cl)c(F)c3)C(C)(C)C2)nc1C` [Example 64, methyl 6-(4-(1-(4-chloro-3-fluorophenyl)-3-isobutyl-1H-pyrazolo[4,3-b]pyridine-5-carbonyl)-3,3-dimethylpiperazin-1-yl)-2,4-dimethylnicotinate], more than 10 µM.
Regarding `CC(C)(C)n1cc(-c2ccc(Cl)c(F)c2)c2ccc(C(=O)N3CCNC(=O)CC3)nc21` [Example 18, 1-(1-(tertbutyl)-3-(4-chloro-3-fluorophenyl)-1H-pyrrolo[2,3-b]pyridine-6-carbonyl)-1,4-diazepan-5-one], the IC50 lay within 0.02 to 10 µM.
As to `CC(C)(C)n1cc(-c2ccc(Cl)c(F)c2)c2ccc(C(=O)N3CCCNC(=O)C3)nc21` [Example 17, 4-(1-(tert-butyl)-3-(4-chloro-3-fluorophenyl)-1H-pyrrolo[2,3-b]pyridine-6-carbonyl)-1,4-diazepan-2-one], the IC50 was in the range of 0.02 to 10 µM.
Turning to `CCOP(=O)(OCC)c1ccc(N2CCN(C(=O)c3ccc4c(-c5ccc(Cl)c(F)c5)cn(C(C)(C)C)c4n3)C(C)(C)C2)nc1` [Example 178, diethyl (6-(4-(1-(tert-butyl)-3-(4-chloro-3-fluorophenyl)-1H-pyrrolo[2,3-b]pyridine-6-carbonyl)-3,3-dimethylpiperazin-1-yl)pyridin-3-yl)phosphonate], the IC50 lay within 0.02 to 10 µM.
Consider `COC(=O)CN1CCN(C(=O)c2ccc3c(-c4ccc(Cl)c(F)c4)cn(C(C)(C)C)c3n2)C(C)(C)C1=O` [Example 3, methyl 2-(4-(1-(tert-butyl)-3-(4-chloro-3-fluorophenyl)-1H-pyrrolo[2,3-b]pyridine-6-carbonyl)-3,3-dimethyl-2-oxopiperazin-1-yl)acetate], for which the IC50 was less than 0.02 µM.
With `CC1(C)C(=O)NCCN1C(=O)c1ccc2c(n1)c(C1CCCC1)nn2-c1ccc(Cl)c(F)c1` [Example 76, 4-(1-(4-chloro-3-fluorophenyl)-3-cyclopentyl-1H-pyrazolo[4,3-b]pyridine-5-carbonyl)-3,3-dimethylpiperazin-2-one], the IC50 was in the range of 0.02 to 10 µM.
With `CC(C)Cc1nn(-c2ccc(Cl)c(F)c2)c2ccc(C(=O)N3CCNC(=O)C3)nc12` [Example 88, 4-(1-(4-chloro-3-fluorophenyl)-3-isobutyl-1H-pyrazolo[4,3-b]pyridine-5-carbonyl)piperazin-2-one], the 50% inhibitory concentration (IC50) is more than 10 µM.
Turning to `CC(C)Cn1cc(-c2cccc(F)c2)c2ccc(C(=O)N3CCNC(=O)C3(C)C)nc21` [Example 114, 4-(3-(3-fluorophenyl)-1-isobutyl-1H-pyrrolo[2,3-b]pyridine-6-carbonyl)-3,3-dimethylpiperazin-2-one], the IC50 is 0.02 to 10 µM.
Turning to `CC(C)Cn1cc(-c2ccc3ccccc3c2)c2ccc(C(=O)N3CCNC(=O)C3(C)C)nc21` [Example 226, 4-(1-isobutyl-3-(naphthalen-2-yl)-1H-pyrrolo[2,3-b]pyridine-6-carbonyl)-3,3-dimethylpiperazin-2-one], the IC50 lay within 0.02 to 10 µM.
As for `Cc1cc(N2CCN(C(=O)c3ccc4c(-c5ccc(Cl)c(F)c5)cn(C(C)(C)CO)c4n3)C(C)(C)C2)nc(C)c1C(=O)O` [Example 102, 6-(4-(3-(4-chloro-3-fluorophenyl)-1-(1-hydroxy-2-methylpropan-2-yl)-1H-pyrrolo[2,3-b]pyridine-6-carbonyl)-3,3-dimethylpiperazin-1-yl)-2,4-dimethylnicotinic acid], the IC50 fell in the range of 0.02 to 10 µM.
Take `Cc1cc(N2CCN(C(=O)c3ccc4c(-c5ccc(Cl)c(F)c5)cn(C[C@@H]5CCOC5)c4n3)C(C)(C)C2)nc(C)c1C(=O)O` [Example 182, (S)-6-(4-(3-(4-chloro-3-fluorophenyl)-1-((tetrahydrofuran-3-yl)methyl)-1H-pyrrolo[2,3-b]pyridine-6-carbonyl)-3,3-dimethylpiperazin-1-yl)-2,4-dimethylnicotinic acid]: the IC50 was 0.02 to 10 µM.
Regarding `COCC(C)(C)n1cc(-c2ccc(Cl)c(F)c2)c2ccc(C(=O)N3CCNC(=O)C3(C)C)nc21` [Example 151, 4-(3-(4-chloro-3-fluorophenyl)-1-(1-methoxy-2-methylpropan-2-yl)-1H-pyrrolo[2,3-b]pyridine-6-carbonyl)-3,3-dimethylpiperazin-2-one], the IC50 was less than 0.02 µM.
The same measure for `CC(C)Cn1cc(-c2cc3cc(F)ccc3[nH]2)c2ccc(C(=O)N3CCNC(=O)C3(C)C)nc21` [Example 225, 4-(3-(5-fluoro-1H-indol-2-yl)-1-isobutyl-1H-pyrrolo[2,3-b]pyridine-6-carbonyl)-3,3-dimethylpiperazin-2-one]: 0.02 to 10 µM; for `CCOC(=O)c1ccc(N2CCN(C(=O)c3ccn4c(-c5ccc(Cl)cc5)nc(CC(C)C)c4c3)C(C)(C)C2)nc1` [Example 218, ethyl 6-(4-(3-(4-chlorophenyl)-1-isobutylimidazo[1,5-a]pyridine-7-carbonyl)-3,3-dimethylpiperazin-1-yl)nicotinate]: more than 10 µM; for `CC(C)Cn1cc(-c2ccc(Cl)c(F)c2)c2ccc(C(=O)N3CCNC(=O)C3(C)C)nc21` [Example 29, 4-(3-(4-chloro-3-fluorophenyl)-1-isobutyl-1H-pyrrolo[2,3-b]pyridine-6-carbonyl)-3,3-dimethylpiperazin-2-one]: less than 0.02 µM.
As for `COCC(COC)n1cc(-c2ccc(Cl)c(F)c2)c2ccc(C(=O)N3CCN(c4cc(C)c(C(=O)O)c(C)n4)CC3(C)C)nc21` [Example 166, 6-(4-(3-(4-chloro-3-fluorophenyl)-1-(1,3-dimethoxypropan-2-yl)-1H-pyrrolo[2,3-b]pyridine-6-carbonyl)-3,3-dimethylpiperazin-1-yl)-2,4-dimethylnicotinic acid], the figure is less than 0.02 µM; as for `Cc1cc(N2CCN(C(=O)c3ccc4c(-c5ccc(Cl)c(F)c5)cn(C[C@H]5CCCO5)c4n3)C(C)(C)C2)nc(C)c1C(=O)O` [Example 212, (R)-6-(4-(3-(4-chloro-3-fluorophenyl)-1-((tetrahydrofuran-2-yl)methyl)-1H-pyrrolo[2,3-b]pyridine-6-carbonyl)-3,3-dimethylpiperazin-1-yl)-2,4-dimethylnicotinic acid], less than 0.02 µM.
The same measure for `CC(C)(C)c1cn(-c2ccc(Cl)c(F)c2)c2ccc(C(=O)N3CCC(CC(=O)O)CC3)nc12` [Example 222, 2-(1-(3-(tert-butyl)-1-(4-chloro-3-fluorophenyl)-1H-pyrrolo[3,2-b]pyridine-5-carbonyl)piperidin-4-yl)acetic acid]: more than 10 µM; for `COCC1CN(C(=O)c2ccc3c(-c4ccc(Cl)c(F)c4)cn(C(C)(C)C)c3n2)CCN1c1cc(C)c(C(=O)O)c(C)n1` (stereo not shown) [Example 132, 6-(4-(1-(tert-butyl)-3-(4-chloro-3-fluorophenyl)-1H-pyrrolo[2,3-b]pyridine-6-carbonyl)-2-(methoxymethyl)piperazin-1-yl)-2,4-dimethyinicotinic acid]: 0.02 to 10 µM.
As for `CC1(C)C(=O)NCCN1C(=O)c1ccc2c(-c3ccc(Cl)c(F)c3)cn(CCOCC(F)(F)F)c2n1` [Example 39, 4-(3-(4-chloro-3-fluorophenyl)-1-(2-(2,2,2-trifluoroethoxy)ethyl)-1H-pyrrolo[2,3-b]pyridine-6-carbonyl)-3,3-dimethylpiperazin-2-one], the IC50 is 0.02 to 10 µM.
In the case of `CC1(C)C(=O)NCCN1C(=O)c1ccc2c(n1)c(C1CC1)nn2-c1ccc(Cl)c(F)c1` [Example 77, 4-(1-(4-chloro-3-fluorophenyl)-3-cyclopropyl-1H-pyrazolo[4,3-b]pyridine-5-carbonyl)-3,3-dimethylpiperazin-2-one], the IC50 was in the range of 0.02 to 10 µM.
